The results in this text go back to PMC8890542, “Discovery of novel paeonol-based derivatives against skin inflammation in vitro and in vivo” (Journal of Enzyme Inhibition and Medicinal Chemistry, 2022).

Data set [1] deals with LPS-induced nitric oxide production in RAW264.7 cells. As to the kind of experiment: LPS-induced NO production, Griess Reagent assay. In kind it is cell-based, mouse. To be noted: for IC50 / inhibition at 10 µM: Mus musculus; for IC50: LPS (0.5 μg/mL) 24 h; for inhibition at 10 µM: compounds 10 μM, 1 h, then LPS (0.5 μg/mL) 24 h, read-out: Inhibition rate±SD (%) against NO production; for Inhibitory activity on LPS-induced NO secretion, in words: 10 µM. How it is done: RAW264.7 cells (7 × 10^4 cells/well) were seeded into 48-well plate and used for experiments after 24 h. […] After 24 h collect cell supernatant, NO production was measured using Griess Reagent assay (Beyotime). Griess reagent were mixed at a ratio of 1:1, and reacted at room temperature for 15 min. Measurement of absorbance at […] with enzyme reader. At least three independent experiments were performed for the determination of IC50 values, which were shown as mean ± SD. All experimental data were analysed by using GraphPad Prism software, version 8.0 (GraphPad Inc.).
Background: The Griess reaction detects nitrite, a stable product of nitric oxide.

Data set [2] can be described thus: Cell viability assay (MTT), RAW264.7. The note with it: mouse, RAW264.7 cells, read-out: Cytotoxicity IC50 with RAW264.7. In kind it is cell-based, mouse. The method, then: RAW264.7 cells (1 × 10^4 cells/well) were seeded into 96-well plate and used for experiments after 24 h. Compounds (4 µM, 20 µM and 100 µM) treated cell for 24 h. Forty microliters of MTT solution (5 mg/mL, Sigma-Aldrich) was then added and incubated for an additional 4 h. After 4 h, cell culture supernatants were removed and DMSO (150 µL) was added into per well for dissolving the resulting crystals. Shaking about 1 0 ∼ 15 min and the absorbance at 492 nm was measured by a microplate reader (MQX200, Bio-Tek, Winooski, VT). At least three independent experiments were performed for the determination of IC50 values, which were shown as mean ± SD. All experimental data were analysed by using GraphPad Prism software, version 8.0 (GraphPad Inc.).

A short description of data set [3]: Cell viability assay (MTT), LO2. The class given is cell-based. To be noted: human, LO2 cells, read-out: Cytotoxicity IC50 with LO2.
Data set [4] has as its system IMQ-induced psoriasis mouse model. The data set is described as follows: IMQ-induced psoriasis-like skin inflammation mouse model. To be noted: intragastric once a day, 7 days. The class given is in vivo, BALB/c mice.
Description: During treatment for 7 days, to score the severity of inflammation of mouse skin, an objective scoring system was developed based on the clinical psoriasis area and severity index. Erythema, scaling, and thickening were scored independently from 0 to 4 as follows: 0, none; 1, slight; 2, moderate; 3, marked; 4, very marked and weight loss. The cumulative score (erythema plus scaling plus thickening) served to indicate the severity of inflammation (scale 0 ∼ 12). On the 8th day, the mice were taken eyeball blood and back skin. One-half of the samples were immediately fixed in 4% paraformaldehyde and for haematoxylin and eosin (H&E) staining. The other samples were put in a −80 °C freezer. Before used, they were placed at room temperature for 30 min. After that, they were added 1 × PBS proportionally, homogenised and centrifuged. The supernatant was collected and used for ELISA assay and Western blot assay. […] The histological image was obtained using 3[sequence]’s Slide Converter (3[sequence], Hungary).

In the case of `COc1cc(O)c(C(C)=O)cc1NC(=O)N(C(C)C)C(C)C` [Compound A3, 3–(5-acetyl-4-hydroxy-2-methoxyphenyl)-1,1-diisopropylurea], the melting point (in general, the temperature of the solid-liquid transition) is 148 to 149 °C. Besides, in data set [1], the IC50 – broadly, the concentration that inhibits the measured activity by half – is above 10 µM and the inhibition – broadly, the drop in the measured response relative to a control, in per cent – at 10 µM is 15.4 ± 3.15%. In data set [2], the IC50 at 24 h was above 100 µM. Moreover, the IC50 at 24 h in data set [3] was above 100 µM.

On to `COc1cc(O)c(C(C)=O)cc1NC(=O)Nc1ccccc1C` [Compound B3, 1–(5-acetyl-4-hydroxy-2-methoxyphenyl)-3-(o-tolyl) urea], for which the melting point was 238 to 239 °C. In data set [1], the “Inhibitory activity on LPS-induced NO secretion, in words” value was “weak to moderate inhibitory activity”; the IC50 is above 10 µM; the inhibition at 10 µM stood at 47.2 ± 6.12%. Moreover, the IC50 at 24 h in data set [2] is above 100 µM. In data set [3], the half-inhibitory concentration (IC50) at 24 h is above 100 µM.

Regarding `C[C@@H]1C[C@H]2[C@@H]3CCC4=CC(=O)C=C[C@]4(C)[C@@]3(F)[C@@H](O)C[C@]2(C)[C@@]1(O)C(=O)CO` [dexamethasone, reference compound], the “Pathological reduction, H&E of skin tissue” value in data set [4] (20 mg/kg) is reported as “high pathological reduction”. Moreover, the “Experimental symptoms and PASI score” value in data set [4] (B12 20 and 40 mg/kg, Dex 20 mg/kg) is “significantly attenuated experimental symptoms and PASI score”.

Compound `COc1cc(O)c(C(C)=O)cc1NC(=O)NCCc1ccc(F)cc1` [Compound D2, 1–(5-acetyl-4-hydroxy-2-methoxyphenyl)-3–(4-fluorophenethyl) urea] displayed a melting point of 224 to 225 °C. In data set [1], the IC50 was above 10 µM and the inhibition at 10 µM was 30.2 ± 3.98%. For the same compound, in data set [2], the concentration for half-maximal inhibition (IC50) at 24 h is above 100 µM. Besides, the IC50 at 24 h in data set [3] was above 100 µM.

Consider `COc1ccccc1NC(=O)Nc1cc(C(C)=O)c(O)cc1OC` [Compound B9, 1–(5-acetyl-4-hydroxy-2-methoxyphenyl)-3–(2-methoxyphenyl) urea], for which the melting point is 228 to 229 °C. Besides, in data set [1], the “Inhibitory activity on LPS-induced NO secretion, in words” value was “weak to moderate inhibitory activity”; the half-inhibitory concentration (IC50) came out at 6.88 µM; the inhibition at 10 µM worked out at 56.7 ± 4.28%. Moreover, the half-maximal inhibitory concentration (IC50) at 24 h in data set [2] is above 100 µM. Moreover, the IC50 at 24 h in data set [3] is above 100 µM.

`COc1cc(O)c(C(C)=O)cc1NC(=O)Nc1ccc(C)cc1` [Compound B4, 1–(5-acetyl-4-hydroxy-2-methoxyphenyl)-3-(p-tolyl) urea] came in with a melting point of 218 to 219 °C. In data set [1], the “Inhibitory activity on LPS-induced NO secretion, in words” value was “moderate inhibitory activity”; it took 8.76 µM to reach half-maximal inhibition (IC50); the inhibition at 10 µM is 53.9 ± 4.12%. The half-maximal inhibitory concentration (IC50) at 24 h in data set [2] is above 100 µM. Besides, the half-inhibitory concentration (IC50) at 24 h in data set [3] was above 100 µM.

For the compound `COc1cc(O)c(C(C)=O)cc1NC(=O)NCc1ccccc1` [Compound C2, 1–(5-acetyl-4-hydroxy-2-methoxyphenyl)-3-benzylurea], the melting point lay in the range of 194 to 195 °C. In addition, in data set [1], the IC50 was above 10 µM and the inhibition at 10 µM was 7.86 ± 2.19%. Besides, the IC50 at 24 h in data set [2] was above 100 µM. The IC50 at 24 h in data set [3] is above 100 µM.

As to `COc1cc(O)c(C(C)=O)cc1NC(=O)NCc1ccco1` [Compound C7, 1–(5-acetyl-4-hydroxy-2-methoxyphenyl)-3-(furan-2-ylmethyl) urea], the melting point was 231 to 232 °C. Also, in data set [1], the 50% inhibitory concentration (IC50) is above 10 µM and the inhibition at 10 µM is 26.2 ± 5.13%. For the same compound, the 50% inhibitory concentration (IC50) at 24 h in data set [2] was above 100 µM. In addition, the half-maximal inhibitory concentration (IC50) at 24 h in data set [3] was above 100 µM.

As to `COc1cc(O)c(C(C)=O)cc1NC(=O)N1CCSC1` [Compound A14, N-(5-acetyl-4-hydroxy-2-methoxyphenyl) thiazolidine-3-carboxamide], the melting point fell in the range of 172 to 174 °C. Moreover, in data set [1], the IC50 was above 10 µM and the inhibition at 10 µM was found to be 24.1 ± 5.16%. Further, in data set [2], the IC50 at 24 h is above 100 µM. Also, in data set [3], the half-inhibitory concentration (IC50) at 24 h is above 100 µM.

`COc1cc(O)c(C(C)=O)cc1NC(=O)NCC(F)(F)F` [Compound A5, 1–(5-acetyl-4-hydroxy-2-methoxyphenyl)-3–(2,2,2-trifluoroethyl) urea]: the melting point fell in the range of 232 to 234 °C. In addition, in data set [1], the concentration for half-maximal inhibition (IC50) is above 10 µM and the inhibition at 10 µM was found to be 23.1 ± 3.25%. For the same compound, in data set [2], the half-inhibitory concentration (IC50) at 24 h was above 100 µM. Moreover, the 50% inhibitory concentration (IC50) at 24 h in data set [3] was above 100 µM.

In turn, `CCNC(=O)Nc1cc(C(C)=O)c(O)cc1OC` [Compound A6, 1–(5-acetyl-4-hydroxy-2-methoxyphenyl)-3-ethylurea] displayed a melting point of 211 to 212 °C. Besides, in data set [1], the IC50 is above 10 µM and the inhibition at 10 µM amounted to 16.2 ± 6.01%. The half-maximal inhibitory concentration (IC50) at 24 h in data set [2] was above 100 µM. For the same compound, in data set [3], the concentration for half-maximal inhibition (IC50) at 24 h is above 100 µM.

For the compound `COc1cc(O)c(C(C)=O)cc1NC(=O)Nc1cccc(C)c1` [Compound B2, 1–(5-acetyl-4-hydroxy-2-methoxyphenyl)-3-(m-tolyl) urea], the melting point was 209 to 210 °C. In data set [1], the IC50 is above 10 µM and the inhibition at 10 µM is 48.7 ± 5.49%. Also, the IC50 at 24 h in data set [2] was above 100 µM. In addition, the IC50 at 24 h in data set [3] was above 100 µM.

As to `COc1cc(O)c(C(C)=O)cc1NC(=O)N1CCN(C)CC1` [Compound A10, N-(5-acetyl-4-hydroxy-2-methoxyphenyl)-4-methylpiperazine-1-carboxamide], the melting point is 141 to 142 °C. In addition, in data set [1], the half-maximal inhibitory concentration (IC50) was above 10 µM and the inhibition at 10 µM turned out to be 26 ± 5.12%. For the same compound, in data set [2], the IC50 at 24 h was above 100 µM. Moreover, the half-maximal inhibitory concentration (IC50) at 24 h in data set [3] was above 100 µM.

On to `COc1ccc(CCNC(=O)Nc2cc(C(C)=O)c(O)cc2OC)cc1` [Compound D3, 1–(5-acetyl-4-hydroxy-2-methoxyphenyl)-3–(4-methoxyphenethyl) urea], for which the melting point lay in the range of 180 to 181 °C. Also, in data set [1], the concentration for half-maximal inhibition (IC50) was above 10 µM and the inhibition at 10 µM is 33.3 ± 3.18%. Besides, in data set [2], the IC50 at 24 h was above 100 µM. Besides, in data set [3], the 50% inhibitory concentration (IC50) at 24 h is above 100 µM.

As for `COc1cc(O)c(C(C)=O)cc1NC(=O)N1CCOCC1` [Compound A11, N-(5-acetyl-4-hydroxy-2-methoxyphenyl) morpholine-4-carboxamide], the melting point lay within 220 to 221 °C. In addition, in data set [1], the IC50 was above 10 µM and the inhibition at 10 µM amounted to 29.8 ± 3.74%. Besides, the 50% inhibitory concentration (IC50) at 24 h in data set [2] was above 100 µM. Moreover, the IC50 at 24 h in data set [3] is above 100 µM.

For the compound `COc1ccc(CNC(=O)Nc2cc(C(C)=O)c(O)cc2OC)cc1` [Compound C5, 1–(5-acetyl-4-hydroxy-2-methoxyphenyl)-3–(4-methoxybenzyl) urea], the melting point fell in the range of 233 to 234 °C. For the same compound, in data set [1], the IC50 is above 10 µM and the inhibition at 10 µM amounted to 6.25 ± 5.16%. The IC50 at 24 h in data set [2] was above 100 µM. Further, the IC50 at 24 h in data set [3] was above 100 µM.

The compound `COc1cc(O)c(C(C)=O)cc1NC(=O)N(C)C` [Compound A7, 3–(5-acetyl-4-hydroxy-2-methoxyphenyl)-1,1-dimethylurea] came in with a melting point of 176 to 177 °C. For the same compound, in data set [1], the IC50 is above 10 µM and the inhibition at 10 µM turned out to be 33.7 ± 5.02%. In addition, the IC50 at 24 h in data set [2] was above 100 µM. Also, in data set [3], the IC50 at 24 h was above 100 µM.

Compound `COc1cc(O)c(C(C)=O)cc1NC(=O)Nc1ccc(OC(F)(F)F)cc1` [Compound B13, 1–(5-acetyl-4-hydroxy-2-methoxyphenyl)-3–(4-(trifluoromethoxy)phenyl) urea] had a melting point of 209 to 210 °C. Moreover, in data set [1], the 50% inhibitory concentration (IC50) is above 10 µM and the inhibition at 10 µM was 25.1 ± 4.18%. Moreover, in data set [2], the 50% inhibitory concentration (IC50) at 24 h was above 100 µM. Moreover, the IC50 at 24 h in data set [3] was above 100 µM.

`CONC(=O)Nc1cc(C(C)=O)c(O)cc1OC` [Compound A4, 1–(5-acetyl-4-hydroxy-2-methoxyphenyl)-3-methoxyurea] came in with a melting point of 176 to 177 °C. In addition, in data set [1], the IC50 is above 10 µM and the inhibition at 10 µM was 15.2 ± 4.18%. For the same compound, in data set [2], the IC50 at 24 h was above 100 µM. Moreover, the IC50 at 24 h in data set [3] is above 100 µM.

Consider `COc1cc(O)c(C(C)=O)cc1NC(=O)NC1CC1` [Compound A9, 1–(5-acetyl-4-hydroxy-2-methoxyphenyl)-3-cyclopropylurea], for which the melting point lay in the range of 191 to 192 °C. Also, in data set [1], the IC50 is above 10 µM and the inhibition at 10 µM was determined as 41 ± 3.15%. In data set [2], the half-inhibitory concentration (IC50) at 24 h is above 100 µM. For the same compound, the half-maximal inhibitory concentration (IC50) at 24 h in data set [3] is above 100 µM.

`CCN1CCN(C(=O)Nc2cc(C(C)=O)c(O)cc2OC)CC1` [Compound A13, N-(5-acetyl-4-hydroxy-2-methoxyphenyl)-4-ethylpiperazine-1-carboxamide] yielded a melting point of 125 to 126 °C. In addition, in data set [1], the IC50 was above 10 µM and the inhibition at 10 µM turned out to be 35.1 ± 2.87%. For the same compound, the IC50 at 24 h in data set [2] was above 100 µM. Further, in data set [3], the concentration for half-maximal inhibition (IC50) at 24 h is above 100 µM.

As to `COc1cc(O)c(C(C)=O)cc1NC(=O)N1CCCC1` [Compound A12, N-(5-acetyl-4-hydroxy-2-methoxyphenyl) pyrrolidine-1-carboxamide], the melting point lay in the range of 118 to 120 °C. For the same compound, in data set [1], the 50% inhibitory concentration (IC50) is above 10 µM and the inhibition at 10 µM worked out at 32.1 ± 4.17%. In addition, the concentration for half-maximal inhibition (IC50) at 24 h in data set [2] was above 100 µM. In data set [3], the IC50 at 24 h is above 100 µM.
